For this experiment, the target named is T1, soluble guanylate cyclase (sGC), α1 and β1 subunits of guanylate cyclase expressed in Sf9 cells (Homo sapiens, UniProt Q02108+Q02153).
T1 construct: made in house; host or cells: Sf9 insect cells (baculovirus co-infection)
T1 sequence (Q02108 1-690): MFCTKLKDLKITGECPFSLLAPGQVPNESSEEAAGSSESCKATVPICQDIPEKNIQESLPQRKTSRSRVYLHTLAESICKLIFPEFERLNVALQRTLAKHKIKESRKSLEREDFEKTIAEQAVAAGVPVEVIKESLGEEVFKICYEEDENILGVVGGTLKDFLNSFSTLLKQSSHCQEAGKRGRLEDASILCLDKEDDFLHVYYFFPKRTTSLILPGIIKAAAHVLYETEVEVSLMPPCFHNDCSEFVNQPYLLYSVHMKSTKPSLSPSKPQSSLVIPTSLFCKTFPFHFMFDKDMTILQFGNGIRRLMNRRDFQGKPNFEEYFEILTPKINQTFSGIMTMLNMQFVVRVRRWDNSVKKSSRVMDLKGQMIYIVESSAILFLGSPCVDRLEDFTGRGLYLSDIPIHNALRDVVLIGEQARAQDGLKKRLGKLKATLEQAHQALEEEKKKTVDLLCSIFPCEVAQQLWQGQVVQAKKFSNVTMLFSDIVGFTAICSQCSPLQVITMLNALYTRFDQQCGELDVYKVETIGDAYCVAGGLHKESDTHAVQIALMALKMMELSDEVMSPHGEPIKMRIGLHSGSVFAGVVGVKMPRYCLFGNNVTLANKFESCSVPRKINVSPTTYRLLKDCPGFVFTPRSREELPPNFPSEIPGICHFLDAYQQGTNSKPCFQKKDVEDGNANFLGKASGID
T1 sequence (Q02153 1-619): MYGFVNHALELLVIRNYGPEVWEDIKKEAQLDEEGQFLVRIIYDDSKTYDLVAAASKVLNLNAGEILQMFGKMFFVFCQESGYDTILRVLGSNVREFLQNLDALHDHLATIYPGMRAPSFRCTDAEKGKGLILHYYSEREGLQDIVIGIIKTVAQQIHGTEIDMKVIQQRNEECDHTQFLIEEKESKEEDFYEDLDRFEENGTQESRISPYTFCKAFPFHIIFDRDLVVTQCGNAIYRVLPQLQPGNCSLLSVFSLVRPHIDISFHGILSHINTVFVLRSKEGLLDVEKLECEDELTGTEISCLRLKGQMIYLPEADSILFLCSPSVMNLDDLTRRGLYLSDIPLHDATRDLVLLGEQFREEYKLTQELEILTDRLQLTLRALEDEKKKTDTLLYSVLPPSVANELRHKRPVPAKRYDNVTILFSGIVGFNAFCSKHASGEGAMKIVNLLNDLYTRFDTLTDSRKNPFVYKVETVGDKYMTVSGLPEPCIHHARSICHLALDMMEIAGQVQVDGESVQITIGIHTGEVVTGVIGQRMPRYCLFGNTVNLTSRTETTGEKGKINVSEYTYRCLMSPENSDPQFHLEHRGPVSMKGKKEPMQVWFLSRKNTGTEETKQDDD
Kind of experiment: Guanylate cyclase assay (formation of cyclic GMP from GTP). The class given is biochemical. The following applies: for Mean activation at 100 μM: (activity of compound at 100 μM with 1 μM SNP)−(activity of compound at 100 μM)/(activity of SNP at 1 μM)−(basal activity of sGC); for Mean efficacy of compound combined with 1 μM of SNP, [%]: compound at 100 μM with 1 μM sodium nitro prusside (SNP); for Emax at 100 µM: read-out: Mean basal efficacy of compound alone at 100 μM, [%]. How it is done:
Sf9 cells were cultured in Sf-90011 medium supplemented with 10% (v/v) fetal calf serum at 28° C. to give a count of 6×10^5 cells/ml. The cells were then infected with a mixture of the virus stocks for the α1 and β1 subunits of guanylate cyclase at a multiplicity of infection of 0.1 pfu/cell. The cells were harvested 72 hours after infection and were pelleted by centrifugation. The resulting cell pellets were homogenized with Polytron homogenizer in 3 volumes of 20 mM Tris-HCl (pH 7.6) containing 1 mM EDTA, 5 mM dithiothreitol, 90 mM NaCl, 10% glycerol, and protease inhibitors mix (Roche Molecular Biochemicals). The homogenate was centrifuged at 50,000×g for 60 minutes and the supernatant was aliquotted and stored at −80° C.
Compounds of the present invention were dissolved in DMSO to make 100 mM and saved as stocks at −20° C. When compounds were tested, prepared 10-fold concentrated solutions with 10% DMSO. Then added 10 μl of 10-fold concentrated compound solutions to the reaction mixture of total 100 μl.
Guanylate cyclase activity was measured by the formation of cyclic GMP from GTP in a total volume of 100 μl. Guanylate cyclase-expressed Sf9 cell high-speed supernatant was used as an enzyme source for the assay. The reaction mixture containing 0.1 μl enzyme (Sf9 high-speed sup), compound solution, 50 mM Tris-HCl (pH 7.6), 4 mM MgCl2, 0.5 mM IBMX, 15 mM creatine phosphate, 20 μg creatine phosphokinase, 0.1% BSA and 1 mM GTP was incubated at 37° C. for 15 minutes. After the reaction, 0.9 ml of 50 mM sodium acetate buffer (pH 5.8) was added followed by boiling for 3 minutes to stop the reaction. The solution was centrifuged at 3000 rpm for 15 minutes at room temperature and cyclic GMP in 20 μl of the resulting supernatant was measured according to the protocol of Amersham cyclic GMP enzymeimmunoassay system (purchased from Sigma, catalogue number RPN 226).
Compounds of the present invention were tested at 100 μM with and without 1 μM sodium nitro prusside (SNP). 1-Benzyl-3-hydroxymethyl-2-furylindazole (YC-1) was included as a standard for each assay. The data was normalized with the activity of 100 μM YC-1 (without SNP) as 100%. Mean basal efficacy, in Table 1, was expressed as a percentage of 100 μM YC-1 (without SNP).
The mean activation, in Table 1, was calculated based on the formula: (activity of compound of the present invention at 100 μM with 1 μM SNP)−(activity of compound of the present invention at 100 μM)/(activity of SNP at 1 μM)−(basal activity of sGC).

The mark [1] stands for this setting: normalized with the activity of 100 μM YC-1 (without SNP) as 100%.
Setting [2] is: compound at 100 μM without SNP, normalized with the activity of 100 μM YC-1 (without SNP) as 100%.

This note sets out measurements from patent US20040121994A1, “Novel amides that activate soluble guanylate cyclase” (priority 2002, published 2004).

On to “2-[1-((2E)-3-{2-[(3-methylbutyl)thio]phenyl}-2-propenoyl)-4-piperidinyl]ethanol [Example 62]”, for which the “Mean activation at 100 μM” value was 4.7. Also, the “Mean efficacy of compound combined with 1 μM of SNP, [%]” value (“Mean efficacy … [%]” below) under setting [1] is 161%. In addition, the “Mean basal efficacy of compound alone at 100 μM, [%]” value under setting [2] was 136%.

Regarding `O=C(CCc1ccccc1Sc1ccc(Cl)cc1)NCCCCO` [Example 1, 3-{2-[(4-chlorophenyl)thio]phenyl}-N-(4-hydroxybutyl)propanamide], the “Mean activation at 100 μM” value is listed as 2.4. Under setting [1], the “Mean efficacy … [%]” value amounted to 25%. Also, the Emax at 100 µM under setting [2] turned out to be 4%.

Turning to `CC(CCCC(C)(C)O)NC(=O)CCc1ccccc1Sc1ccc(Cl)cc1` (stereo not drawn) [Example 2, 3-{2-[(4-chlorophenyl)thio]phenyl}-N-(5-hydroxy-1,5-dimethylhexyl)propanamide], the “Mean activation at 100 μM” value worked out at 2.6. In addition, under setting [1], the “Mean efficacy … [%]” value is reported as 84%. The Emax at 100 µM under setting [2] is 9%.

On to `O=C(CCc1ccccc1Sc1ccc(Cl)cc1)NCCCCCO` [Example 3, 3-{2-[(4-chlorophenyl)thio]phenyl}-N-(5-hydroxypentyl)propanamide], for which the “Mean activation at 100 μM” value came to 2.3. For the same molecule, the “Mean efficacy … [%]” value under setting [1] is 29%. For the same molecule, the Emax at 100 µM under setting [2] came to 2%.

On to `O=C(CCc1ccccc1Sc1ccc(Cl)cc1)NC1CCC(O)CC1` (stereo not drawn) [Example 4, 3-{2-[(4-chlorophenyl)thio]phenyl}-N-(4-hydroxycyclohexyl)propanamide], for which the “Mean activation at 100 μM” value was found to be 2.6. Also, under setting [1], the “Mean efficacy … [%]” value is reported as 28%. Besides, the Emax at 100 µM under setting [2] came to 1%.

Consider `Cc1ccc(Sc2ccccc2CCC(=O)NCCCCO)cc1` [Example 5, N-(4-hydroxybutyl)-3-{2-[(4-methylphenyl)thio]phenyl}propanamide], for which the “Mean activation at 100 μM” value was 5.1. For the same molecule, the “Mean efficacy … [%]” value under setting [1] was 96%. Besides, the Emax at 100 µM under setting [2] was 14%.

Take `CS(=O)(=O)NCCCCNC(=O)CCc1ccccc1Sc1ccc(Cl)cc1` [Example 6, 3-{2-[(4-chlorophenyl)thio]phenyl}-N-{4-[(methylsulfonyl)amino]butyl}propanamide]: the “Mean activation at 100 μM” value amounted to 2.7. The “Mean efficacy … [%]” value under setting [1] was found to be 11%. Besides, under setting [2], the Emax at 100 µM was found to be 2%.

For the molecule `O=C(CCc1cccc(F)c1Sc1ccc(Cl)cc1)NCCCCO` [Example 7, 3-{2-[(4-chlorophenyl)thio]-3-fluorophenyl}-N-(4-hydroxybutyl)propanamide], the “Mean activation at 100 μM” value was found to be 3.8. Also, under setting [1], the “Mean efficacy … [%]” value is given as 80%. Moreover, the Emax at 100 µM under setting [2] was found to be 19%.

As to `O=C(CCc1cc(F)ccc1Sc1ccc(Cl)cc1)NCCCCO` [Example 8, 3-{2-[(4-chlorophenyl)thio]-5-fluorophenyl}-N-(4-hydroxybutyl)propanamide], the “Mean activation at 100 μM” value was 3.1. Besides, the “Mean efficacy … [%]” value under setting [1] was 16%. Further, the Emax at 100 µM under setting [2] was 0%.

Regarding `CC(O)CCCNC(=O)CCc1ccccc1Sc1ccc(Cl)cc1` (stereo not drawn) [Example 9, 3-{2-[(4-chlorophenyl)thio]phenyl}-N-(4-hydroxypentyl)propanamide], the “Mean activation at 100 μM” value worked out at 4.0. Under setting [1], the “Mean efficacy … [%]” value is listed as 22%. Moreover, under setting [2], the Emax at 100 µM worked out at 4%.

With `CC(CC(=O)N(C)C1CCN(C)CC1)c1ccccc1Sc1ccc(Cl)cc1` (stereo not drawn) [Example 10, 3-{2-[(4-chlorophenyl)thio]phenyl}-N-methyl-N-(1-methyl-4-piperidinyl)butanamide], the “Mean activation at 100 μM” value was determined as 1.6. Also, under setting [1], the “Mean efficacy … [%]” value amounted to 7%. Further, the Emax at 100 µM under setting [2] was found to be 0%.

Take `CC(CC(=O)NCCc1ccncc1)c1ccccc1Sc1ccc(Cl)cc1` (stereo not drawn) [Example 11, 3-{2-[(4-chlorophenyl)thio]phenyl}-N-[2-(4-pyridinyl)ethyl]butanamide]: the “Mean activation at 100 μM” value came to 2.8. Further, the “Mean efficacy … [%]” value under setting [1] is 6%. The Emax at 100 µM under setting [2] is 1%.

Take `CONCCCCNC(=O)CCc1ccccc1Sc1ccc(Cl)cc1` [Example 12, 3-{2-[(4-chlorophenyl)thio]phenyl}-N-[4-(methoxyamino)butyl]propanamide]: the “Mean activation at 100 μM” value is given as 1.5. For the same molecule, under setting [1], the “Mean efficacy … [%]” value is recorded as 20%. The Emax at 100 µM under setting [2] stood at 2%.

In the case of `CNCCCCNC(=O)CCc1ccccc1Sc1ccc(Cl)cc1` [Example 13, 3-{2-[(4-chlorophenyl)thio]phenyl}-N-[4-(methylamino)butyl]propanamide], the “Mean activation at 100 μM” value worked out at 2.4. Also, the “Mean efficacy … [%]” value under setting [1] is reported as 25%. In addition, the Emax at 100 µM under setting [2] is 4%.

With `CNCCCCCNC(=O)CCc1ccccc1Sc1ccc(Cl)cc1` [Example 14, 3-{2-[(4-chlorophenyl)thio]phenyl}-N-[5-(methylamino)pentyl]propanamide], the “Mean activation at 100 μM” value came out at 4.4. Moreover, the “Mean efficacy … [%]” value under setting [1] amounted to 124%. The Emax at 100 µM under setting [2] stood at 30%.

Regarding `Cc1ccc(Sc2ncccc2/C=C/C(=O)NC2CCC(O)CC2)cc1` (stereo not drawn) [Example 15, (2E)-N-(4-hydroxycyclohexyl)-3-{2-[(4-methylphenyl)thio]-3-pyridinyl}acrylamide], the “Mean activation at 100 μM” value came out at 4.7. In addition, the “Mean efficacy … [%]” value under setting [1] is 204%. Further, under setting [2], the Emax at 100 µM was 126%.

Regarding `O=C(/C=C/c1cccnc1Sc1ccc(Cl)cc1)NC1CCC(O)CC1` (stereo not drawn) [Example 16, (2E)-3-{2-[(4-chlorophenyl)thio]-3-pyridinyl}-N-(4-hydroxycyclohexyl)acrylamide], the “Mean activation at 100 μM” value stood at 3.6. Besides, under setting [1], the “Mean efficacy … [%]” value amounted to 68%. Besides, the Emax at 100 µM under setting [2] came out at 11%.
